Legend:
[1] = target: T1, hTRPV1 (Homo sapiens, UniProt Q8NER1); assay: FLIPR inhibition of TRPV1 activation by capsaicin; type: cell-based; settings: for antagonism toward capsaicin (in words): capsaicin 100 nM, hTRPV1 in CHO cells
[2] = target: T1, hTRPV1; assay: hTRPV1 antagonism toward pH activation; type: cell-based; settings: activator pH
[3] = target: T1, hTRPV1; assay: hTRPV1 antagonism toward heat; type: cell-based
[4] = target: T1, hTRPV1; assay: hTRPV1 antagonism toward NADA activation; type: cell-based; settings: activator NADA
[5] = tested on: CCI-induced cold allodynia; assay: Mouse chronic constriction injury; type: in vivo; settings: mouse CCI model, po

T1 sequence (Q8NER1 whole entry): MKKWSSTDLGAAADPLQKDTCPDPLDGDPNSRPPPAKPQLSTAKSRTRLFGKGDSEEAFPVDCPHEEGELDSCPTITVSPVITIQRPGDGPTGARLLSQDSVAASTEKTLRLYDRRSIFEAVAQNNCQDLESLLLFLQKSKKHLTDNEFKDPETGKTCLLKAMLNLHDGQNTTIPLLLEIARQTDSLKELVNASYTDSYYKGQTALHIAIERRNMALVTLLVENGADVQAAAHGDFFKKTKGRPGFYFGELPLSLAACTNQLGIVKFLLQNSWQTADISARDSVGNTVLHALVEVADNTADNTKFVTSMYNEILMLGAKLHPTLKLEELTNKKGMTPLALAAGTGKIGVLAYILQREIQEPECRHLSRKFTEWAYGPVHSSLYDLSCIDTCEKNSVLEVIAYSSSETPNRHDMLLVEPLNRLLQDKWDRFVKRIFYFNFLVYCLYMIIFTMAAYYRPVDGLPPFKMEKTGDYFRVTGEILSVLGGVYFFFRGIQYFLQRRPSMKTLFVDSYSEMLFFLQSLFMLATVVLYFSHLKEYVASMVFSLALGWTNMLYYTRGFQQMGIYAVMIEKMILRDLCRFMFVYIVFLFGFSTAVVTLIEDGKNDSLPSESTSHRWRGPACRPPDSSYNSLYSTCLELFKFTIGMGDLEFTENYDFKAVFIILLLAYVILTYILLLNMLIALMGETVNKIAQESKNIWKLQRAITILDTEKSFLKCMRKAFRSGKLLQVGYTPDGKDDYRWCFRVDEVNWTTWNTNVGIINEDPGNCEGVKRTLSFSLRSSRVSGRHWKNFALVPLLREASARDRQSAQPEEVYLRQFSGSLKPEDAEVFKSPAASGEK

Row | antagonism toward capsaicin (in words) [1] | fold increase in potency compared to 8 ([1]; Ki(CAP) relative to parent 8) | SMILES | other results
1 | retained high potencies |  | Cc1cc(-c2nc(C(F)(F)F)ccc2CNC(=O)C(C)c2ccc(NS(C)(=O)=O)c(F)c2)ccc1F (stereo not drawn) [Compound 19] | 
2 |  | ca. 30 fold | CC(C(=O)NCc1ccc(C(F)(F)F)nc1-c1ccc(F)c(Cl)c1)c1ccc(NS(C)(=O)=O)c(F)c1 (stereo not drawn) [Compound 18] | 
3 |  | 13 fold | CC(C(=O)NCc1ccc(C(F)(F)F)nc1-c1cccc(Cl)c1)c1ccc(NS(C)(=O)=O)c(F)c1 (stereo not drawn) [Compound 13] | 
4 |  | 2 fold | CC(C(=O)NCc1ccc(C(F)(F)F)nc1-c1ccc(N(C)C)cc1)c1ccc(NS(C)(=O)=O)c(F)c1 (stereo not drawn) [Compound 15] | 
5 | reasonable antagonism |  | CC(C(=O)NCc1ccc(C(F)(F)F)nc1-c1ccccc1)c1ccc(NS(C)(=O)=O)c(F)c1 (stereo not drawn) [Compound 8] | fold less potent than the 2-cyclohexyl derivative ([1]; Ki(CAP) relative to 2-cyclohexyl derivative): ca. 10 fold
6 | weak antagonist |  | CC(C(=O)NCc1ccc(C(F)(F)F)nc1-n1ccnc1)c1ccc(NS(C)(=O)=O)c(F)c1 (stereo not drawn) [Compound 30] | 
7 | excellent antagonism | 16 fold | CC(C(=O)NCc1ccc(C(F)(F)F)nc1-c1ccc(F)cc1)c1ccc(NS(C)(=O)=O)c(F)c1 (stereo not drawn) [Compound 9] | antagonism toward pH (in words) [2]: moderate antagonism; IC50 [3]: 25.9 nM; antagonism toward heat (in words) ([3]; activator heat): moderate antagonism; antagonism toward NADA (in words) [4]: excellent antagonism; anti-allodynic efficacy (limited efficacy) [5]: 53 % MPE
8 | higher potency than phenyl derivative 8 |  | CC(C(=O)NCc1ccc(C(F)(F)F)nc1-c1ccoc1)c1ccc(NS(C)(=O)=O)c(F)c1 (stereo not drawn) [Compound 29] | 
9 |  | 9 fold | CC(C(=O)NCc1ccc(C(F)(F)F)nc1-c1ccc(Cl)cc1)c1ccc(NS(C)(=O)=O)c(F)c1 (stereo not drawn) [Compound 12] | 
10 |  | 5 fold | CC(C(=O)NCc1ccc(C(F)(F)F)nc1-c1cccc(F)c1)c1ccc(NS(C)(=O)=O)c(F)c1 (stereo not drawn) [Compound 10] | 
11 | potent antagonist |  | CC(C(=O)NCc1ccc(C(F)(F)F)nc1-c1ccsc1)c1ccc(NS(C)(=O)=O)c(F)c1 (stereo not drawn) [Compound 27] | 
12 | retained high potencies |  | CC(C(=O)NCc1ccc(C(F)(F)F)nc1-c1ccc(Cl)c(Cl)c1)c1ccc(NS(C)(=O)=O)c(F)c1 (stereo not drawn) [Compound 20] | 
13 |  | 13 fold | CC(C(=O)NCc1ccc(C(F)(F)F)nc1-c1ccc(C(C)(C)C)cc1)c1ccc(NS(C)(=O)=O)c(F)c1 (stereo not drawn) [Compound 16] | 
14 |  |  | CC(C(=O)NCc1ccc(C(F)(F)F)nc1-c1ccccc1F)c1ccc(NS(C)(=O)=O)c(F)c1 (stereo not drawn) [Compound 11] | fold reduction in potency compared to 8 ([1]; Ki(CAP) relative to parent 8): 10 fold
15 |  | 6 fold | COc1ccc(-c2nc(C(F)(F)F)ccc2CNC(=O)C(C)c2ccc(NS(C)(=O)=O)c(F)c2)cc1 (stereo not drawn) [Compound 14] | 
16 | lack of activity |  | CC(C(=O)NCc1ccc(C(F)(F)F)nc1-c1cccc(NS(C)(=O)=O)c1)c1ccc(NS(C)(=O)=O)c(F)c1 (stereo not drawn) [Compound 17] | 
17 | weak antagonist |  | CC(C(=O)NCc1ccc(C(F)(F)F)nc1Cc1ccccc1)c1ccc(NS(C)(=O)=O)c(F)c1 (stereo not drawn) [Compound 35] | 
18 | higher potency than phenyl derivative 8 |  | CC(C(=O)NCc1ccc(C(F)(F)F)nc1-c1ccco1)c1ccc(NS(C)(=O)=O)c(F)c1 (stereo not drawn) [Compound 28] | 
19 |  | ca. 20 fold | CC(C(=O)NCc1ccc(C(F)(F)F)nc1-c1cccs1)c1ccc(NS(C)(=O)=O)c(F)c1 (stereo not drawn) [Compound 26] | 
20 | dramatic increase in antagonism |  | CC(C(=O)NCc1ccc(C(F)(F)F)nc1CCc1ccccc1)c1ccc(NS(C)(=O)=O)c(F)c1 (stereo not drawn) [Compound 36] | 

Reference: article PMC6980356 (Bioorganic & medicinal chemistry letters, 2014)
